Source: US4677131

Test: shake-flask (equal volumes, stirred); both phases assayed by HPLC
Conditions: 32 °C

Structure (SMILES): CCCCCCCCCCN1CCN(C)C1=O
- partition coefficient iso-octane / distilled water: 756 concentration ratio

Structure (SMILES): CCCCCCCN1CCN(C)C1=O
- partition coefficient iso-octane / distilled water: 24 concentration ratio

Structure (SMILES): CCCCCCCCCCCCN1CCN(C)C1=O
- partition coefficient iso-octane / distilled water: 7350 concentration ratio

Structure (SMILES): CCCCCCCCCCCCN1CCCCCC1=O
- partition coefficient iso-octane / distilled water: 2004 concentration ratio
